Test system: MDA-MB-231 cells
Test: Extracellular lactate production inhibition after 4 h, MDA-MB-231
Details: Homo sapiens, MDA-MB-231

**Q.** With `Cc1ccc2cccnc2c1S(=O)(=O)Nc1ccc(F)cc1C#Cc1ccc(C(=O)O)nc1` [Compound 112, 5-{2-[5-fluoro-2-(7-methylquinoline-8-sulfonamido)phenyl]ethynyl}pyridine-2-carboxylic acid] as the compound, how does the IC50 read?
**A.** Its IC50 is 10 to 100 nM.

**Q.** For `O=C(O)c1ccc(C#Cc2ccccc2NS(=O)(=O)N2CCc3ccccc3C2)cn1` [Compound 113, 5-(2-{2-[(1,2,3,4-tetrahydroisoquinoline-2-sulfonyl)amino]phenyl}ethynyl)pyridine-2-carboxylic acid], which IC50 is on record?
**A.** The IC50 was 1000 to 100000 nM.

**Q.** `COc1ccccc1-c1cccc(S(=O)(=O)Nc2ccccc2C#Cc2ccc(C(=O)O)nc2)c1` [Compound 114, 5-[2-(2-{2′-methoxy-[1,1′-biphenyl]-3-sulfonamido}phenyl)ethynyl]pyridine-2-carboxylic acid] was tested. Which IC50 did it give?
**A.** The IC50 was 100 to 1000 nM.

**Q.** Which IC50 does the source give for `O=CN(Cc1ccc2ccccc2c1)c1ccccc1C#Cc1ccc(C(=O)O)nc1` [Compound 115, 5-[2-(2-{N-[(naphthalen-2-yl)methyl]formamido}phenyl)ethynyl]-pyridine-2-carboxylic acid] here?
**A.** The IC50 was 100 to 1000 nM.

**Q.** `CC(=O)N(Cc1ccc2ccccc2c1)c1ccccc1C#Cc1ccc(C(=O)O)nc1` [Compound 116, 5-[2-(2-{N-[(naphthalen-2-yl)methyl]acetamido}phenyl)ethynyl]-pyridine-2-carboxylic acid] was tested. Which IC50 did it give?
**A.** Its IC50 is 100 to 1000 nM.

**Q.** Which IC50 does the source give for `COc1ccc2cccc(S(=O)(=O)Nc3ccccc3C#Cc3ccc(C(=O)O)nc3)c2n1` [Compound 117, 5-{2-[2-(2-methoxyquinoline-8-sulfonamido)phenyl]ethynyl}pyridine-2-carboxylic acid] here?
**A.** The IC50 was 100 to 1000 nM.

**Q.** For `Cc1cc(C#Cc2ccccc2NS(=O)(=O)c2ccc3c(c2)Cc2ccccc2-3)cnc1C(=O)O` [Compound 118, 5-{2-[2-(9H-fluorene-2-sulfonamido)phenyl]ethynyl}-3-methylpyridine-2-carboxylic acid], which IC50 is on record?
**A.** The IC50 was 100 to 1000 nM.

**Q.** Which IC50 does the source give for `Cc1cc(C(=O)O)ncc1C#Cc1ccccc1NS(=O)(=O)c1ccc2c(c1)Cc1ccccc1-2` [Compound 119, 5-{2-[2-(9H-fluorene-2-sulfonamido)phenyl]ethynyl}-4-methylpyridine-2-carboxylic acid] here?
**A.** The IC50 was 100 to 1000 nM.

**Q.** `CS(=O)(=O)N(Cc1ccc2ccccc2n1)c1ccccc1C#Cc1ccc(C(=O)O)nc1` [Compound 120, 5-[2-(2-{N-[(quinolin-2-yl)methyl]methanesulfonamido}phenyl)ethynyl]pyridine-2-carboxylic acid] was tested. Which IC50 did it give?
**A.** Its IC50 is 1000 to 100000 nM.

**Q.** `CC(=O)N(Cc1ccc2ccccc2n1)c1ccccc1C#Cc1ccc(C(=O)O)nc1` [Compound 121, 5-[2-(2-{N-[(quinolin-2-yl)methyl]acetamido}phenyl)ethynyl]-pyridine-2-carboxylic acid] was tested. Which IC50 did it give?
**A.** The IC50 was 100 to 1000 nM.

**Q.** How did the IC50 turn out when `COC(=O)c1cc(C)c(C#Cc2ccccc2NS(=O)(=O)c2ccc(OC)c3cccnc23)cn1` [Compound 122, methyl 5-{2-[2-(5-methoxyquinoline-8-sulfonamido)phenyl]ethynyl}-4-methylpyridine-2-carboxylate] was run?
**A.** The IC50 was 10 to 100 nM.

**Q.** `COc1ccc(S(=O)(=O)N(C)c2ccccc2C#Cc2cnc(C(=O)O)cc2C)c2ncccc12` [Compound 123, 4-methyl-5-{2-[2-(N-methyl5-methoxyquinoline-8-sulfonamido)phenyl]ethynyl}pyridine-2-carboxylic acid] was tested. Which IC50 did it give?
**A.** Its IC50 is 1000 to 100000 nM.

**Q.** How did the IC50 turn out when `O=C(O)c1ccc(C#Cc2ccccc2NS(=O)(=O)c2ccc3c(c2)[nH]c2ccccc23)cn1` [Compound 124, 5-{2-[2-(9H-carbazole-2-sulfonamido)phenyl]ethynyl}pyridine-2-carboxylic acid] was run?
**A.** The IC50 was 100 to 1000 nM.

**Q.** `COc1ccc(-c2cccc(S(=O)(=O)Nc3ccccc3C#Cc3ccc(C(=O)O)nc3)c2)c(OC)n1` [Compound 125, 5-(2-{2-[3-(2,6-dimethoxypyridin-3-yl)benzenesulfonamido]phenyl}-ethynyl)pyridine-2-carboxylic acid] was tested. Which IC50 did it give?
**A.** Its IC50 is 100 to 1000 nM.

**Q.** How did the IC50 turn out when `O=C(O)c1ccc(C#Cc2ccccc2NS(=O)(=O)N2CCc3ccccc32)cn1` [Compound 126, 5-(2-{2-[(2,3-dihydro-1H-indole-1-sulfonyl)amino]phenyl}ethynyl)pyridine-2-carboxylic acid] was run?
**A.** Its IC50 is 100 to 1000 nM.

Reference: patent publication US12351570B2 (MERCK PATENT GMBH, priority 2018, dated 2025)
